Measurements reported in patent US20130004477A1, “Methods for Treating Inflammation and Oxidative Stress Related Diseases” (priority 2009, published 2013).
Read-outs that look alike come from different tables or passages of the source.

Key:
[1] = target: T1, CFTR (Homo sapiens, UniProt P13569, G551D); details: CF patients with at least one copy of the G551D mutation; Phase II; cited from earlier work
T1 construct: endogenous in cells; host or cells: CF patients (nasal epithelium, sweat glands, lungs)
T1 sequence (P13569 whole entry G551D): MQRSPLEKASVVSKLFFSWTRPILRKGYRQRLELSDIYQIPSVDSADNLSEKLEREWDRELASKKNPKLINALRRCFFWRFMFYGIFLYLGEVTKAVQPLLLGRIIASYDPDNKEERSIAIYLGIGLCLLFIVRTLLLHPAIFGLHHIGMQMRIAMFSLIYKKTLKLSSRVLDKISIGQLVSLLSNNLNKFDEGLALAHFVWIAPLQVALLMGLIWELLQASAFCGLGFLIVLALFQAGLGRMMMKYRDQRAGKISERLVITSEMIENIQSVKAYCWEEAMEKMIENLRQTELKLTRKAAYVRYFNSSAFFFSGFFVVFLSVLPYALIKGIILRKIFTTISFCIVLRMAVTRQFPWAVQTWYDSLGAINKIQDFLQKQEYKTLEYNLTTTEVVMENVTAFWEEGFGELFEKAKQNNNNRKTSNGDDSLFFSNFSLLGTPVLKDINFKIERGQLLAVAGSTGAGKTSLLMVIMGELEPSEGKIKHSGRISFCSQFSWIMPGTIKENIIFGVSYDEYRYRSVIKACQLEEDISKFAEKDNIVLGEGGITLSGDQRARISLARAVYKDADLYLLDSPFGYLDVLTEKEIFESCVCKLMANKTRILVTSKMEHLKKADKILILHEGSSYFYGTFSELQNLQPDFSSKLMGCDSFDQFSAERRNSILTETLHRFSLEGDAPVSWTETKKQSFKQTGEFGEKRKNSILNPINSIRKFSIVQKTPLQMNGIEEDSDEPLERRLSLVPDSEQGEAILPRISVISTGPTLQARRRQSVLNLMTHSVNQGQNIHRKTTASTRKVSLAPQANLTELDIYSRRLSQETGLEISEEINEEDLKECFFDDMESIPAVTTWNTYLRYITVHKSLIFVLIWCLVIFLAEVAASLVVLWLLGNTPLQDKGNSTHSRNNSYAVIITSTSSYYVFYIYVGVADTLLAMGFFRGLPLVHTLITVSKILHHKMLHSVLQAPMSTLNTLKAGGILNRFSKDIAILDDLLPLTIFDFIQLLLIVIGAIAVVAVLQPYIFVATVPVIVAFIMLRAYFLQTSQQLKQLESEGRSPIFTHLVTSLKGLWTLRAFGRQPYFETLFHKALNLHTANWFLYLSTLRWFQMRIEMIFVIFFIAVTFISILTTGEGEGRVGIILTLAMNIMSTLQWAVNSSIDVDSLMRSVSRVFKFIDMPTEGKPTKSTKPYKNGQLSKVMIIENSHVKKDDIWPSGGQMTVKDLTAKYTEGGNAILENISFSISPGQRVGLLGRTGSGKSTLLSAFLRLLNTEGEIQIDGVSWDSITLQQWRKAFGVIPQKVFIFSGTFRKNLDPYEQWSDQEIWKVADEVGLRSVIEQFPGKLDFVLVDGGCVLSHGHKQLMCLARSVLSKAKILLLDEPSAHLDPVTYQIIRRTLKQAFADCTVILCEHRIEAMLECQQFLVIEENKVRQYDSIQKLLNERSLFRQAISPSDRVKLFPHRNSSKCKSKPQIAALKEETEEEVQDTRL

[2] = tested on: Neuro-2A cells; details: GO 10 mU/ml, MPO 1 U/ml
Experimental: (§1) (the number of independent trials is indicated in parentheses).
(§2) Four types of cell, Calu-3, Min6 (58), Neuro-2A, and HAEC (Invitrogen Inc.) were plated in 48-well culture plates (3.5×10^4 to 2×10^5 per well). Twenty-four to forty-eight hours later, cells were washed with Earl's balanced salt solution (EBSS) before subsequent studies. EBSS contained: NaCl (116 mM), glucose (5.5 mM), KCl (5.4 mM), CaCl2 (1.8 mM), MgSO4 (2.2 mM), NaH2PO4 (1 mM), and NaHCO3 (26 mM); pH 7.0. […] LPO (1 U/ml) and NaSCN (100 or 400 μM) were added to protect cells from injuries caused by H2O2. For the MPO studies, cells were first incubated for one hour in EBSS containing MPO (1 U/ml). The MPO reaction was initiated by adding 10 mU/ml GO to generate H2O2, and cells were maintained in a 37° C. incubator (5% CO2) for three additional hours. […] After incubation, cells were trypsinized, pelleted, and resuspended in a phosphate buffer solution (PBS), which contains NaCl (137 mM), KCl (2.7 mM), Na2HPO4 (4.3 mM) and KH2PO4 (1.4 mM); pH 7.3. Non-viable cells were identified by staining with 0.2% Trypan blue (Invitrogen, Inc.). Both stained and unstained cells were counted with a hemocytometer in double blind experiments.

[3] = tested on: Min6 cells; details: 400 μM SCN^−; GO 10 mU/ml, MPO 1 U/ml
Experimental: as §1, §2

[4] = tested on: human aortic endothelial cells (HAEC); details: 400 μM SCN^−; GO 5 mU/ml, MPO 1 U/ml
Experimental: as §1, §2

[5] = tested on: CF piglets
[6] = tested on: Calu-3 cells; assay: Cell viability assay: H2O2 cytotoxicity in Calu-3 cells; type: cell-based, human; details: SCN^− alone, GO 20 mU/ml
Experimental: as §1, §2

[7] = non-enzymatic reaction; cited from earlier work
[8] = tested on: CF mice
Experimental: Mouse pups, weaned at day ˜28, had access to drinking water and solid mouse food. […] All pictures were taken at the same magnification (20× objective). […] In panels C and F, the green, yellow and black arrows point to a villus, a goblet cell and a mucus plug, respectively.
The body length (A) and weight (B) (mean±s.e.m.) of CF and heterozygous mice were determined 30, 60, and 90 days after weaning
FIGS. 7B-G, show standard Alcian Blue-stained (5 μm-thick) sections of large (FIG. 7B-D) and small (FIG. 7E-G) intestines (Alcian Blue specifically stains mucin; http://www.protocol-online.org).
Mouse pups, weaned at day ˜28, had access to drinking water and solid mouse food. […] In FIGS. 7C and 7F, the green, yellow and black arrows point to a villus, a goblet cell and a mucus plug, respectively.
The body length (A) and weight (B) (mean±s.e.m.) of CF and heterozygous mice were determined 30, 60, and 90 days after.

[9] = target: MPO (Homo sapiens, UniProt P05164); details: 1 U/ml MPO, 100 mM Cl^−, 5 minutes
Sequence of MPO (P05164 49-745, species assumed): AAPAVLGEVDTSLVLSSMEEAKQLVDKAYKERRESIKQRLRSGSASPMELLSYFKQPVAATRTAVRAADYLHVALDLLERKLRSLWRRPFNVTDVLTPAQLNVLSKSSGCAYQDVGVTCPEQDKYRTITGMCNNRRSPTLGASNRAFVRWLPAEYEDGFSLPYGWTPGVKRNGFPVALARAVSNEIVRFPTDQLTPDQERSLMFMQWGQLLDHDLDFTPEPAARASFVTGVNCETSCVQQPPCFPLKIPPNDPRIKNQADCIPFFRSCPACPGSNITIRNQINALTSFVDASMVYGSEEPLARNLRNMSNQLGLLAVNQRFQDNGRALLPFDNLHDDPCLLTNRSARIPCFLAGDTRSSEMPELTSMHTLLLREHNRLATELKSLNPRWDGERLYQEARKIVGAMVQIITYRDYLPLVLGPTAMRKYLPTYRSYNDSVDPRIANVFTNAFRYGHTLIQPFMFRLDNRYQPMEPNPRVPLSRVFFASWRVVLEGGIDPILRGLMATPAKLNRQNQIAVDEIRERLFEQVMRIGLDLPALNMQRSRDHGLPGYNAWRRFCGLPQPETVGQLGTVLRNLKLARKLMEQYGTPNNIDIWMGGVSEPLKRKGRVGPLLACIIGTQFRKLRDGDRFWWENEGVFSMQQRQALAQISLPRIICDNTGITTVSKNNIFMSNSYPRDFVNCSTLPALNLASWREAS
Experimental: Reaction mixtures contained MPO (1 U/ml), NaCl (100 mM), NaSCN (0-400 μM), and sodium phosphate (100 mM, pH 7.0). Reactions were initiated by adding 50 μM H2O2 to the mixture, and stopped 5 minutes later by adding 1 μM catalase to decompose remaining H2O2 to H2O and O2. Blank reactions contained no H2O2. The concentrations of OCl^− and OSCN^−were determined using the taurine chloramine assay. OCl^− and OSCN^− react with taurine to form taurine chloramine. The latter oxidizes yellow 5-thio-2-nitrobenzoic acid (ε412=14,100 M^−1 cm^−1) to colorless 5,5′-dithiobis-2-nitrobenzoic acid. The drop in absorbance at 412 nm (after subtracting the blank) reflects the total concentration of OCl^− plus OSCN^− produced. […] Methionine was added immediately after the addition of catalase but 5 minutes before the taurine chloramine assay. This five minute interval allowed methionine to reduce OCl^−. Unless specified otherwise, all reagents were purchased from Sigma-Aldrich.

[10] = tested on: healthy volunteers; details: Phase 1 single-dose; cited from earlier work
[11] = tested on: CF patients; details: high doses; cited from earlier work
[12] = single dose of thiocyanate (1 mM)
[13] = 1 mM thiocyanate in drinking water, 30, 60, 90 days after weaning

## CC(C)(C)c1cc(C(C)(C)C)c(NC(=O)c2c[nH]c3ccccc3c2=O)cc1O [VX-770]
[1]
  biological measures of CFTR function (nasal potential difference and sweat chloride): improvements
  clinical measures of pulmonary health (FEV1): improvements

## N#CS [SCN^−, thiocyanate]
[2]; 100 μM SCN^−
  protection against MPO activity: virtually fully protected
[2]; 400 μM SCN^−
  protection against MPO activity: virtually fully protected
[3]
  protection against MPO activity: virtually fully protected
[4]
  protection against MPO activity: virtually fully protected
[5]; given to pig mothers during pregnancy and to piglets after birth, up to 20 mg/kg daily, with or without iodine
  protection for CF piglets: improved protection
[5]; [12]
  effect on meconium in CF piglets: loosening meconium
  survival of CF piglets: does not survive them
[6]; 100 μM
  protection against H2O2 cell injury: Neither SCN^− (100 or 400 μM), nor LPO (1 U/ml) alone provided any significant protection
[6]; 400 μM
  protection against H2O2 cell injury: Neither SCN^− (100 or 400 μM), nor LPO (1 U/ml) alone provided any significant protection
[7]
  second-order rate constant of oxidation by OCl^− to OSCN^−: 2.3e+07 M⁻¹ s⁻¹
[8]; 1 mM thiocyanate in drinking water (mothers before weaning, pups after weaning)
  CF mice survived beyond 90 days: 10 of the 15
[8]; [13]
  body length of CF mice: normalizes
  body weight of CF mice: normalizes
[8]; oral thiocyanate, 1 mM in drinking water
  survival of CF mice: prolongs the survival
[9]; 10 μM SCN^−
  inhibition of MPO-catalyzed production of OCl^−: inhibited only slightly, if at all
[9]; 50 μM SCN^−
  inhibition of MPO-catalyzed production of OCl^−: partially inhibited
[9]
  production of OSCN^− and OCl^− with increasing SCN^− concentration: boosted the production of OSCN^− but depressed that of OCl^−
[9]; 100-400 μM SCN^−
  inhibition of MPO-catalyzed production of OCl^−: inhibited almost completely

## O=C(O)c1cccc(-c2noc(-c3ccccc3F)n2)c1 [Ataluren]
[10]
  safety, oral availability and tolerability: safe, orally available and well tolerated

## CC(C)Cc1ccc(C(C)C(=O)O)cc1 (stereo not shown) [ibuprofen]
[11]
  CF disease progression: slow disease progression
